Read-outs that look alike come from different tables or passages of the source.
What was measured:
[1] = MTT cytotoxicity assay, normal human cell line; format: cell-based; settings: human, WI38 cells (normal human cells), 24 h treatment, mean ± SD of three experiments, read-out: In Vitro Cytotoxicity IC50 WI38
Method: (§1) In addition, the safety profile of the 2-sulfanylquinazolin-4(3H)-one derivatives was evaluated against normal human cells (WI38) […]. The standard MTT (3-(4,5-dimethylthiazol-2-yl)-2,5 diphenyl tetrazolium bromide) colorimetric assay protocol was used, as described by Mosmann. […] The results were expressed as growth inhibitory concentration (IC50) values.
(§2) The cell lines were obtained from ATCC (American Type Culture Collection). […] After incubation, the cells were treated with different concentrations of the synthesized compounds and incubated for 24 h. Afterward, the cells were washed with PBS, and 20 µL of MTT solution at 5 mg/mL was added, all incubated for 4 h. The MTT solution was discarded, and 100 µL of dimethyl sulfoxide (DMSO) was added per well. […] The relative cell viability in percentage was calculated as (A570 of treated cells/A570 of untreated cells) × 100.

HeLa cells = assay: MTT cytotoxicity assay; format: cell-based, human; settings: 24 h treatment, mean ± SD of three experiments, read-out: In Vitro Cytotoxicity IC50 HeLa
Method: as §1, §2

MCF-7 cells = assay: MTT cytotoxicity assay; format: cell-based, human; settings: MCF-7, MTT, 24 h treatment, mean ± SD of three experiments, read-out: In Vitro Cytotoxicity IC50 MCF-7
Method: as §1, §2

HepG2 cells [2] = assay: MTT cytotoxicity assay; format: cell-based, human; settings: 24 h treatment, mean ± SD of three experiments, read-out: In Vitro Cytotoxicity IC50 HepG2
Method: as §1, §2

MDA-MB-231 cells = assay: MTT cytotoxicity assay; format: cell-based, human; settings: MDA-MB-231, MTT, 24 h treatment, mean ± SD of three experiments, read-out: In Vitro Cytotoxicity IC50 MDA-MB-231
Method: as §1, §2

WI38 cells = assay: MTT cytotoxicity assay, normal human cell line; format: cell-based; settings: 24 h treatment, mean ± SD of three experiments, read-out: In Vitro Cytotoxicity IC50 WI38
Method: as §1, §2

EGFR = biological target: T1, EGFR (Homo sapiens, UniProt P00533); assay: Kinase inhibition, ELISA kit; format: biochemical; settings: mean ± SD of three experiments
T1 construct: purchased
T1 sequence (P00533 25-1210): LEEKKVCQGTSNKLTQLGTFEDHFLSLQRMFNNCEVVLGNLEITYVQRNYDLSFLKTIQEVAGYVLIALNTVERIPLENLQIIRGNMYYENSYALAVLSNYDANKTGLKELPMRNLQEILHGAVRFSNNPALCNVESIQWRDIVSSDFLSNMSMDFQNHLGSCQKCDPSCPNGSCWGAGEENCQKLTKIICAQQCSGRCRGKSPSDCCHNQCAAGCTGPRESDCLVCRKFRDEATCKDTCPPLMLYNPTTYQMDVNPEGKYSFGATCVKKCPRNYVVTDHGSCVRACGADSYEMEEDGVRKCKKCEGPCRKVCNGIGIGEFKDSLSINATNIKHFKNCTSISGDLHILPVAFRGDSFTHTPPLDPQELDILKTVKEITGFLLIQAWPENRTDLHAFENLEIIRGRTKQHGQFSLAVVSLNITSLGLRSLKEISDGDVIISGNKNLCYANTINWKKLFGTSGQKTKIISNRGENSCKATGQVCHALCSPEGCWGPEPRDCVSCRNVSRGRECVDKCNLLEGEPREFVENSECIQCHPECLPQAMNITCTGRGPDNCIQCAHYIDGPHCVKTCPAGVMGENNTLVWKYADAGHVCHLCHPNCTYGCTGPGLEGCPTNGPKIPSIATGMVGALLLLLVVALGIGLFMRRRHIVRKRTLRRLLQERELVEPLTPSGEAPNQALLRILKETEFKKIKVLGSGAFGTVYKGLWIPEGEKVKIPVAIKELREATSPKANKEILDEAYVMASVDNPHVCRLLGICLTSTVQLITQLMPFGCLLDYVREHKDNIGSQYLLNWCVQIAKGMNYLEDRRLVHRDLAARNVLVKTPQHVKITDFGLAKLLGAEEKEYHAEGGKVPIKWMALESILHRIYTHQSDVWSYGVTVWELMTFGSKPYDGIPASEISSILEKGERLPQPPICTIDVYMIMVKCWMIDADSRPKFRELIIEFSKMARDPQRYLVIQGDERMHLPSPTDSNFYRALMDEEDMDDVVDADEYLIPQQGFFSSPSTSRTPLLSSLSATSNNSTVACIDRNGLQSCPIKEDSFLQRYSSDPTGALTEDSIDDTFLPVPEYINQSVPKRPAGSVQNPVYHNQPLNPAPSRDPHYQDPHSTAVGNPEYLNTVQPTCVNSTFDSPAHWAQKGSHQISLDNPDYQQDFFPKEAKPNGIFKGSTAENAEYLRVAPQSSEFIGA
Method: The corresponding kinase inhibitory kit assays were used, and the results are expressed as IC50 values (µM), as presented in Table 2. […] Afterward, the plate was incubated at room temperature for 2.5 h and then washed with PBS. A total of 100 μL of the prepared biotin antibody was added and incubated at room temperature for an additional 1 h, and then 100 μL of streptavidin solution was added and incubated at room temperature for another 45 min. After washing, 100 μL of TMB substrate reagent was added and incubated for 30 min at room temperature. Finally, about 50 μL of the stop solution was added and then read at 450 nm immediately. A standard curve was drawn, with concentrations on the X-axis and absorbance on the Y-axis.

VEGFR2 = biological target: T2, VEGFR2 (Homo sapiens, UniProt P35968); assay: Kinase inhibition, ELISA kit; format: biochemical; settings: mean ± SD of three experiments
T2 construct: purchased
T2 sequence (P35968 20-1356): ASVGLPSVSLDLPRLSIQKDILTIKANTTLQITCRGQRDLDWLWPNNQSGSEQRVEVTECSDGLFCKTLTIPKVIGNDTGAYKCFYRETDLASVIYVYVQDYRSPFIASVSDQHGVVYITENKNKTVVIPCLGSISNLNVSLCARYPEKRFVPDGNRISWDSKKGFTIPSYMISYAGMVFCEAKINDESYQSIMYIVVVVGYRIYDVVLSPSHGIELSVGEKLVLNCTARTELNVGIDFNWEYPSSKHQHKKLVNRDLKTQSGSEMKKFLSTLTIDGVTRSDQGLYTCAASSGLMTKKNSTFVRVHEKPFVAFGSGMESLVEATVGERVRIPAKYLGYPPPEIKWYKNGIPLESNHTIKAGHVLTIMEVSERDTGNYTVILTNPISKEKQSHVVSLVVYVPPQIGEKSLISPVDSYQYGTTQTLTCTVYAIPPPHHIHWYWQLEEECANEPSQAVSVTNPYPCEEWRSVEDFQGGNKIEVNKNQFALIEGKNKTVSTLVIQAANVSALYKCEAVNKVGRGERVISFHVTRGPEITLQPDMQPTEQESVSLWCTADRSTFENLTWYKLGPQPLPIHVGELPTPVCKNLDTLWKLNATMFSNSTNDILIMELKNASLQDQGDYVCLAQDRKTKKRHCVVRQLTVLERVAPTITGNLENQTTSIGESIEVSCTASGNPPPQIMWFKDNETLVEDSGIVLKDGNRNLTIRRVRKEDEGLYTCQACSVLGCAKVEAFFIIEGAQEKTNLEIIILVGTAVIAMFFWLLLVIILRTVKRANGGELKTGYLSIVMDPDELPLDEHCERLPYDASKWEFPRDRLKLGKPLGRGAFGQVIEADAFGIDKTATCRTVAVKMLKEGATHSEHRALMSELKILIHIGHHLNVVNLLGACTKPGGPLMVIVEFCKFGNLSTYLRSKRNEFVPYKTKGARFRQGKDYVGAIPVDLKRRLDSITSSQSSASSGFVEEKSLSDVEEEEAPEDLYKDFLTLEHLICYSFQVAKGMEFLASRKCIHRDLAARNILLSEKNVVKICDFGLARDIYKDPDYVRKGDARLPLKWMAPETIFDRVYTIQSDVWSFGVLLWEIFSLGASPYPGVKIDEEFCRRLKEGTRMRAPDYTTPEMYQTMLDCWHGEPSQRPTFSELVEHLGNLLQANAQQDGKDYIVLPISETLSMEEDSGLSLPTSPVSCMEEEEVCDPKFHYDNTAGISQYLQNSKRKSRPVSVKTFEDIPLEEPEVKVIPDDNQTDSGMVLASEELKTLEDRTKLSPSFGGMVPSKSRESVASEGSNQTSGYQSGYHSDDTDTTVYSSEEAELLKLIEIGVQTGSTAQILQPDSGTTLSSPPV
Method: . The corresponding kinase inhibitory kit assays were used, and the results are expressed as IC50 values (µM), as presented in Table 2. […]. The inhibitory activity of compound 5d against CDK2, HER2, EGFR, and VEGFR2 was evaluated using the corresponding human kinases ELISA kit (Enzyme-Linked Immunosorbent Assay). In brief, specific antibodies for each kinase were seeded on a 96-well plate, and 100 μL of the standard solution or compound 5d was added. Afterward, the plate was incubated at room temperature for 2.5 h and then washed with PBS. A total of 100 μL of the prepared biotin antibody was added and incubated at room temperature for an additional 1 h, and then 100 μL of streptavidin solution was added and incubated at room temperature for another 45 min. After washing, 100 μL of TMB substrate reagent was added and incubated for 30 min at room temperature. Finally, about 50 μL of the stop solution was added and then read at 450 nm immediately. A standard curve was drawn, with concentrations on the X-axis and absorbance on the Y-axis.

Bax = assay: RT-PCR of apoptosis-related genes in HepG2 cells; format: cell-based, human; settings: HepG2 cells treated with 5d, control = 1, increase
Method: (§3) RT-PCR reactions were carried out to investigate the relative gene expression of apoptosis-related genes, including the proapoptotic genes Bax, caspases 3 and 9, and the anti-apoptotic Bcl2 gene. […] Therefore, it can be concluded that the induction of apoptosis in HepG2 cells upon treatment with 5d is associated with the upregulation of proapoptotic genes and the downregulation of anti-apoptotic genes.
(§4) The level of apoptotic markers caspase-3, caspase-9, Bax, and Bcl-2 was measured using BIORAD iScript TM One-Step RT-PCR kit with SYBR® Green. According to the manufacturer’s instructions, the kit was used in three subsequent steps.
(§5) mRNA isolation of up to 1 × 10^7 cells was carried out using an RNeasy extraction kit. Cells were disrupted in RNeasy Lysis Buffer (RLT buffer) and homogenized. Ethanol was then added to make a lysate and provoke the selective binding of RNA to the RNeasy membrane. The sample was then applied to the RNeasy mini spin column, where total RNA binds to the membrane while contaminants pass through. The RNA was then eluted in RNase-free water.
(§6) All the following reagents were mixed to make about 50 μL mixture: 2X SYBR® Green RT-PCR reaction mixture (25 μL), forward primer (10 μM; 1.5 μL), reverse primer (10 μM; 1.5 μL), nuclease-free H2O (11 μL), RNA template (1 pg to 100 ng total RNA; 10 μL) and iScript reverse transcriptase for One-Step RT-PCR (1 μL).
(§7) The whole reaction mixture was incubated in a real-time thermal detection system (Rotorgene) as follows: cDNA synthesis (10 min at 50 °C), iScript reverse transcriptase inactivation (5 min at 95 °C), PCR cycling and detection (30–45 cycles):10 s at 95 °C and 30 s at 55 °C to 60 °C (data collection step) and melt curve analysis: 1 min at 95 °C, 1 min at 55 °C and 10 s at 55 °C–95 °C (80 cycles, increasing each by 0.5 °C each cycle).

caspase-3 = assay: RT-PCR of apoptosis-related genes in HepG2 cells; format: cell-based, human; settings: HepG2 cells treated with 5d, control = 1, increase
Method: as §3, §4, §5, §6, §7

caspase-9 = assay: RT-PCR of apoptosis-related genes in HepG2 cells; format: cell-based, human; settings: HepG2 cells treated with 5d, control = 1, increase
Method: as §3, §4, §5, §6, §7

Bcl2 = assay: RT-PCR of apoptosis-related genes in HepG2 cells; format: cell-based, human; settings: HepG2 cells treated with 5d, control = 1, downregulated
Method: as §3, §4, §5, §6, §7

HepG2 cells [3] = assay: Annexin V-FITC/PI apoptosis assay; format: cell-based, human; settings: HepG2, 7.1 µM, 24 h
Method: (§8) In order to investigate apoptosis, the most cytotoxic compound in anti-proliferative assay 5d was further exposed to […] using the standard Annexin V/PI double staining procedure.
The apoptotic and necrotic effect of compound 5d was investigated using flow cytometry, as described in [43]. The HepG2 cells were treated with 7.1 µM of compound 5d for 24 h. After treatment, the cells were collected by trypsinization, centrifuged, and washed two times with PBS. A suspension of cells in 500 μL binding buffer was double stained with 5 μL Annexin V-FITC and 5 μL PI in the dark at room temperature for 15 min. The stained cells were measured using an Epics XL-MCL™ Flow Cytometer (Beckman Coulter), and the data were analyzed using Flowing software (version 2.5.1, Turku Centre for Biotechnology, Turku, Finland).

[4] = system: HepG2, MCF-7, MDA-231, and HeLa; assay: MTT cytotoxicity assay, range over the tested cancer cell lines; format: cell-based; settings: Homo sapiens, range over HepG2, MCF-7, MDA-231 and HeLa, read-out: IC50 range against all tested cancer cell lines
Method: as §1, §2

CDK2 = biological target: T3, CDK2 (Homo sapiens, UniProt P24941); assay: Kinase inhibition, ELISA kit; format: biochemical; settings: mean ± SD of three experiments
T3 construct: purchased
Method: (§9) The corresponding kinase inhibitory kit assays were used, and the results are expressed as IC50 values (µM), as presented in Table 2.
(§10) Afterward, the plate was incubated at room temperature for 2.5 h and then washed with PBS. A total of 100 μL of the prepared biotin antibody was added and incubated at room temperature for an additional 1 h, and then 100 μL of streptavidin solution was added and incubated at room temperature for another 45 min. After washing, 100 μL of TMB substrate reagent was added and incubated for 30 min at room temperature. Finally, about 50 μL of the stop solution was added and then read at 450 nm immediately. A standard curve was drawn, with concentrations on the X-axis and absorbance on the Y-axis.

HER2 = biological target: T4, HER2 (Homo sapiens, UniProt P04626); assay: Kinase inhibition, ELISA kit; format: biochemical; settings: mean ± SD of three experiments
T4 construct: purchased
T4 sequence (P04626 23-1255): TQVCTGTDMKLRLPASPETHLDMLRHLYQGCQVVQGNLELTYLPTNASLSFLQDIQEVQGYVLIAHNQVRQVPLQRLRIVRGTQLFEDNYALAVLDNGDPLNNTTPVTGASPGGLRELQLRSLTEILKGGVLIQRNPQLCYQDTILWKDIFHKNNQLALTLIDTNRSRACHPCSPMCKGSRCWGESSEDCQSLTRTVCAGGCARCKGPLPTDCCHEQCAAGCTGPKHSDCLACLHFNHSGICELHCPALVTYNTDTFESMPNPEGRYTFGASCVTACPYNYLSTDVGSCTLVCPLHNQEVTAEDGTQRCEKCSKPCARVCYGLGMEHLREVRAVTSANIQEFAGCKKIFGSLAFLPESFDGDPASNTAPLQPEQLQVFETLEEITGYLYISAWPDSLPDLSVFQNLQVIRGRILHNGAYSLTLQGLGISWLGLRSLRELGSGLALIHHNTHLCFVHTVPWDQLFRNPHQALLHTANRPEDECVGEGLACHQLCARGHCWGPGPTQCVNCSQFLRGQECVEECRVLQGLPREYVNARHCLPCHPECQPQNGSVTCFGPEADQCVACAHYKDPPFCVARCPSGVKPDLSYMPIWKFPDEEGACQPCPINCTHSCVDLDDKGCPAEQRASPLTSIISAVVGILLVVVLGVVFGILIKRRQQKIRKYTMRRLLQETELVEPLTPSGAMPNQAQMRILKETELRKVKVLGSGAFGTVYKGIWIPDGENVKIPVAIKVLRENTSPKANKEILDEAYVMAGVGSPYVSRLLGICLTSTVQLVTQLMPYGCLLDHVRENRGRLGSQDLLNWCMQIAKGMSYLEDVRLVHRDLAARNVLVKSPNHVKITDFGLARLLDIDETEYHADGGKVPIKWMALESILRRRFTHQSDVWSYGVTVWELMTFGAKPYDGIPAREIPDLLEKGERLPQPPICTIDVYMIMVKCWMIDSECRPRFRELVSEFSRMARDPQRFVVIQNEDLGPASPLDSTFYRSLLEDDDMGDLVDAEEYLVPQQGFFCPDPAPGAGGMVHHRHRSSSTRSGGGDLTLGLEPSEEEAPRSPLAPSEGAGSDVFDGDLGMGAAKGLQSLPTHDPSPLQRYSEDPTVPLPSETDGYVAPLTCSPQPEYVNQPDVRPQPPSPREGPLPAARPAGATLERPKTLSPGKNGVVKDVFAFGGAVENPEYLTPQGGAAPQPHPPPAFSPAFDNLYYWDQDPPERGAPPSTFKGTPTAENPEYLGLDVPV
Method: as §9, §10

HepG2 cells [5] = assay: Flow cytometry analysis of cell cycle; format: cell-based, human; settings: HepG2, 7.1 µM, 24 h
Method: as §8
Flow cytometry analysis was conducted to assess the effect of compound 5d on the cell cycle distribution in HepG2 cells. The Flow Cytometry Kit for cell cycle analysis (ab139418_Propidium Iodide Flow Cytometry Kit/BD) was used in this test. First, the HepG2 cells were seeded in six-well plates at a density of 2 × 10^5 cells/well and incubated for 24 h. In the second step, 10% FBS was added, and the cells were incubated at 37 °C and 5% CO2. The medium was replaced with (DMSO 1% v/v) containing 7.1 µM of compound 5d and then incubated for 24 h. After that, the cells were fixed with 70% ethanol at 4 °C for 12 h and washed with cold PBS, and then rinsed with PBS. In the last step, 100 μL of RNase A was added to each well and incubated at 37 °C for 30 min and stained with 400 μL PI in the dark at room temperature for an additional 30 min. The stained cells were measured using an Epics XL-MCL™ Flow Cytometer (Beckman Coulter), and the data were analyzed using Flowing software (version 2.5.1, Turku Centre for Biotechnology, Turku, Finland).

Compound | melting point | IC50 at 24 h [1] | IC50 (HeLa cells; Homo sapiens, 24 h) | IC50 (MCF-7 cells; Homo sapiens, MCF7, 24 h) | IC50 (HepG2 cells [2]; Homo sapiens, HepG2, 24 h) | IC50 (MDA-MB-231 cells; Homo sapiens, MDA-MB-231, 24 h) | other results
Cc1ccc(CSc2nc3ccc(F)cc3c(=O)n2-c2ccc(F)cc2)cc1 [Compound 5a, 3-(4-fluoro-Arenyl)-6-fluoro-2-(4-methyl-benzylsulfanyl)-3H-quinazolin-4-one] | 166 to 168 °C | 28.7 ± 2.2 µM | 83.2 ± 4.1 µM | 86 ± 4.4 µM | > 100 µM | 79.1 ± 4 µM | –
Cc1ccc(CSc2nc3ccc(F)cc3c(=O)n2-c2ccccc2)cc1 [Compound 5b, 6-Fluoro-2-(4-methyl-benzylsulfanyl)-3-Arenyl-3H-quinazolin-4-one] | 158 to 160 °C | > 100 µM | > 100 µM | 91.2 ± 4.8 µM | 85 ± 4.6 µM | 78.3 ± 3.9 µM | –
Cc1ccc(-n2c(SCc3ccc(Cl)cc3)nc3ccc(F)cc3c2=O)cc1 [Compound 5d, 2-(4-Chloro-benzylsulfanyl)-6-fluoro-3-(4-methylArenyl)-3H-quinazolin-4-one] | – | 40.9 µM | 6.38 ± 0.4 µM | 2.48 ± 0.2 µM | 7.1 ± 0.6 µM | 1.94 ± 0.1 µM | IC50 (EGFR): 0.22 ± 0.013 µM; IC50 (WI38 cells): 64.3 ± 3.5 µM; IC50 (VEGFR2): 0.336 ± 0.009 µM; gene expression of Bax, fold change (Bax): three; gene expression of caspase-3, fold change (caspase-3): three; gene expression of caspase-9, fold change (caspase-9): two; expression of anti-apoptotic gene Bcl2, fold change (Bcl2): 0.4 fold; necrosis, % of cell population (HepG2 cells [3]; control 1.45%): 3.08%; total apoptosis, % of cell population (HepG2 cells [3]; control 2.28%): 28.04%; IC50 [4]: 1.94 to 7.1 µM; IC50 (CDK2): 2.1 ± 0.126 µM; IC50 (HER2): 0.184 ± 0.008 µM; phase of cell cycle arrest (HepG2 cells [5]): S phase; drop in the cell population at the G0-G1 phase (HepG2 cells [5]; in comparison to the control): 4.5%; drop in the cell population at the G2/M phase (HepG2 cells [5]; in comparison to the control): 4.73%; increase in the cell population in the S phase (HepG2 cells [5]; in comparison to the control): 9.23%
COc1cccc2c1C(=O)c1c(O)c3c(c(O)c1C2=O)C[C@@](O)(C(=O)CO)C[C@@H]3O[C@H]1C[C@H](N)[C@H](O)[C@H](C)O1 [Dox., doxorubicin, reference compound] | – | – | – | – | 4.5 ± 0.2 µM | – | –
CCN(CC)CCNC(=O)c1c(C)[nH]c(/C=C2\C(=O)Nc3ccc(F)cc32)c1C [Sunitinib, sunitinib, reference compound] | – | 77.3 ± 4.3 µM | 21.8 ± 1.7 µM | 24.8 ± 1.8 µM | 11.3 ± 1 µM | 19 ± 1.5 µM | –

Continued, in another order:

melting point | Compound | IC50 at 24 h [1] | IC50 (HeLa cells; Homo sapiens, 24 h) | IC50 (MCF-7 cells; Homo sapiens, MCF7, 24 h) | IC50 (HepG2 cells [2]; Homo sapiens, HepG2, 24 h) | IC50 (MDA-MB-231 cells; Homo sapiens, MDA-MB-231, 24 h) | other results
156 to 158 °C | Cc1ccc(-n2c(SCc3ccccc3)nc3ccc(F)cc3c2=O)cc1 [Compound 5c, 2-Benzylsulfanyl-6-fluoro-3-(4-methyl-Arenyl)-3H-quinazolin-4-one] | – | – | – | – | – | IC50 (WI38 cells): 40.9 ± 2.6 µM; IC50 (HeLa cells): 31.2 ± 2.1 µM; IC50 (MCF-7 cells): 51.9 ± 3.1 µM; IC50 (HepG2 cells [2]): 34.3 ± 2.4 µM; IC50 (MDA-MB-231 cells): 26.9 ± 1.9 µM
170 to 172 °C | Cc1ccc(-n2c(SCc3ccc(F)cc3)nc3ccc(F)cc3c2=O)cc1 [Compound 5e, 2-(4-Fluoro-benzylsulfanyl)-6-fluoro-3-(4-methylArenyl)-3H-quinazolin-4-one] | 55.8 ± 3.2 µM | 38.2 ± 2.3 µM | 25.2 ± 1.9 µM | 29.5 ± 2.2 µM | 19.2 ± 1.5 µM | IC50 [4]: 19.2 to 38.2 µM
